Measurements published in publication PMC8694140, “Synthesis and photobiological applications of naphthalimide–benzothiazole conjugates: cytotoxicity and topoisomerase IIα inhibition” (RSC Advances, 2021).

Assays:
[1] = system: MCF7 (breast) human cancer cell line; assay: MTT cytotoxicity assay, MCF7; assay type: cell-based
Method: (§1) Human malignant cell lines, i.e., MCF7 (breast), HeLa (cervix), and A549 (lung), as well as non-cancerous human cell line Hek293 (kidney), were cultured using the Ham's media or DMEM having 10% FBS, […] streptomycin, 100 U ml^−1 penicillin, and 50 mM glutamine. For seeding of cells, 96 well plates were used, maintaining the density of […] cells per well with the help of DMEM as a media having 10% FBS cells. Then, seeded cells were incubated in an incubator having a 5% CO2 supply at 37 °C. Compounds were added to the wells at 1, 10, and 100 μM concentrations, and cells were incubated for 48 h at 37 °C and then added 10 μl of MTT to each well prepared from 5 mg ml^−1 stock solution using 1 × PBS buffer and were incubated for 4 h at 37 °C in the dark. DMSO (100 μl) was used to dissolve the formazan crystals. To determine the concentration of formazan, the crystal absorbance difference was recorded at 570 nm. The percentage of relative cell toxicity was calculated by using the following eqn (1):1 [drawing 1]

[2] = system: A549 (lung) human cancer cell line; assay: MTT cytotoxicity assay, A549; assay type: cell-based
Method: as §1

[3] = system: HeLa (cervix) human cancer cell line; assay: MTT cytotoxicity assay, HeLa; assay type: cell-based; conditions: 48 h
Method: as §1

[4] = system: Hek293 (kidney) human noncancerous cell line; assay: MTT cytotoxicity assay, normal cells Hek293; assay type: cell-based; conditions: read-out: growth inhibition of Hek293
Method: To evaluate the safety, the cytotoxic effect of all compounds (7–22) against Hek293 (kidney) human noncancerous cell line was also evaluated using a colorimetric assay (MTT assay) at the concentration level of 10 μM.
as §1

Compound | IC50 ([1]; 48 h) | IC50 ([2]; 48 h) | IC50 [3] | IC50 ([1]; Homo sapiens, MCF7, 48 h) | melting point | IC50 ([2]; Homo sapiens, A549, 48 h) | IC50 ([3]; Homo sapiens) | inhibition at 10 µM [4]
6-(3-(Benzo[d]thiazol-2-yl)-1-propyl-1H-indol-5-yl)-2-(4-fluorophenyl)-1H-benzo[de]isoquinoline-1,3(2H)-dione [Compound 21] | 4.1 ± 0.23 µM | 0.63 ± 0.08 µM | 3.96 ± 0.16 µM |  |  |  |  | 
C=CCn1cc(-c2nc3ccccc3s2)c2cc(-c3ccc4c5c(cccc35)C(=O)OC4=O)ccc21 [Compound 7, 6-(1-Allyl-3-(benzo[d]thiazol-2-yl)-1H-indol-5-yl)-1H,3H-benzo[de]isochromene-1,3-dione] |  |  |  | 6.94 ± 0.16 µM | 255 to 258 °C | 0.45 ± 0.04 µM | 7.18 ± 0.28 µM | 
C=CCn1cc(-c2nc3ccccc3s2)c2cc(-c3ccc4c5c(cccc35)C(=O)N(CCCC)C4=O)ccc21 [Compound 8, 6-(1-Allyl-3-(benzo[d]thiazol-2-yl)-1H-indol-5-yl)-2-butyl-1H-benzo[de]isoquinoline-1,3(2H)-dione] |  |  |  | 7.69 ± 0.2 µM | 277 to 280 °C | 1.19 ± 0.11 µM | 5.52 ± 0.15 µM | 
C=CCn1cc(-c2nc3ccccc3s2)c2cc(-c3ccc4c5c(cccc35)C(=O)N(CCN)C4=O)ccc21 [Compound 9, 6-(1-Allyl-3-(benzo[d]thiazol-2-yl)-1H-indol-5-yl)-2-(2-aminoethyl)-1H-benzo[de]isoquinoline-1,3(2H)-dione] |  |  |  | 4.17 ± 0.13 µM |  | 3.06 ± 0.13 µM | 4.02 ± 0.18 µM | 17%
C=CCn1cc(-c2nc3ccccc3s2)c2cc(-c3ccc4c5c(cccc35)C(=O)N(CCN(C)C)C4=O)ccc21 [Compound 10, 6-(1-Allyl-3-(benzo[d]thiazol-2-yl)-1H-indol-5-yl)-2-(2-(dimethylamino)ethyl)-1H-benzo[de] isoquinoline-1,3(2H)-dione] |  |  |  | 3.31 ± 0.11 µM | 274 to 277 °C | 1.02 ± 0.08 µM | 3.4 ± 0.13 µM | 
C=CCn1cc(-c2nc3ccccc3s2)c2cc(-c3ccc4c5c(cccc35)C(=O)N(CCN(CC)CC)C4=O)ccc21 [Compound 11, 6-(1-Allyl-3-(benzo[d]thiazol-2-yl)-1H-indol-5-yl)-2-(2-(diethylamino)ethyl)-1H-benzo[de] isoquinoline-1,3(2H)-dione] |  |  |  | 3.57 ± 0.21 µM | 281 to 284 °C | 0.81 ± 0.05 µM | 3.07 ± 0.17 µM | ~2%
C=CCn1cc(-c2nc3ccccc3s2)c2cc(-c3ccc4c5c(cccc35)C(=O)N(CCN3CCOCC3)C4=O)ccc21 [Compound 14, 6-(1-Allyl-3-(benzo[d]thiazol-2-yl)-1H-indol-5-yl)-2-(2-morpholinoethyl)-1H-benzo[de]isoquinoline-1,3(2H)-dione] |  |  |  | 3.69 ± 0.09 µM | 285 to 288 °C | 1.11 ± 0.06 µM | 3.93 ± 0.11 µM | 
C=CCN1C(=O)c2cccc3c(-c4ccc5c(c4)c(-c4nc6ccccc6s4)cn5CC=C)ccc(c23)C1=O [Compound 15, 2-Allyl-6-(1-allyl-3-(benzo[d]thiazol-2-yl)-1H-indol-5-yl)-1H-benzo[de]isoquinoline-1,3(2H)-dione] |  |  |  | 0.38 ± 0.06 µM |  | 1.89 ± 0.15 µM | 2.71 ± 0.09 µM | 
C=CCn1cc(-c2nc3ccccc3s2)c2cc(-c3ccc4c5c(cccc35)C(=O)NC4=O)ccc21 [Compound 16, 6-(1-Allyl-3-(benzo[d]thiazol-2-yl)-1H-indol-5-yl)-1H-benzo[de]isoquinoline-1,3(2H)-dione] |  |  |  | 3.57 ± 0.08 µM | 277 to 280 °C | 1.91 ± 0.1 µM | 3.61 ± 0.19 µM | 
C=CCn1cc(-c2nc3ccccc3s2)c2cc(-c3ccc4c5c(cccc35)C(=O)N(Cc3ccccc3)C4=O)ccc21 [Compound 17, 6-(1-Allyl-3-(benzo[d]thiazol-2-yl)-1H-indol-5-yl)-2-benzyl-1H-benzo[de]isoquinoline-1,3(2H)-dione] |  |  |  | 4.39 ± 0.23 µM | 281 to 284 °C | 2.01 ± 0.09 µM | 4.17 ± 0.21 µM | 
C=CCn1cc(-c2nc3ccccc3s2)c2cc(-c3ccc4c5c(cccc35)C(=O)N(Nc3ccccc3)C4=O)ccc21 [Compound 18, 6-(1-Allyl-3-(benzo[d]thiazol-2-yl)-1H-indol-5-yl)-2-(phenylamino)-1H-benzo[de]isoquinoline-1,3(2H)-dione] |  |  |  | 3.58 ± 0.14 µM |  | 0.96 ± 0.12 µM | 3.96 ± 0.2 µM | 
C=CCn1cc(-c2nc3ccccc3s2)c2cc(-c3ccc4c5c(cccc35)C(=O)N(C3CCCCC3)C4=O)ccc21 [Compound 19, 6-(1-Allyl-3-(benzo[d]thiazol-2-yl)-1H-indol-5-yl)-2-cyclohexyl-1H-benzo[de]isoquinoline-1,3(2H)-dione] |  |  |  | 1.65 ± 0.11 µM | 285 to 288 °C | 1.47 ± 0.12 µM | 3.33 ± 0.11 µM | 
C=CCn1cc(-c2nc3ccccc3s2)c2cc(-c3ccc4c5c(cccc35)C(=O)N(CCN3CCNCC3)C4=O)ccc21 [Compound 20, 6-(1-Allyl-3-(benzo[d]thiazol-2-yl)-1H-indol-5-yl)-2-(2-(piperazin-1-yl)ethyl)-1H-benzo[de] isoquinoline-1,3(2H)-dione] |  |  |  | 3.35 ± 0.16 µM | 294 to 297 °C | 0.76 ± 0.04 µM | 3.45 ± 0.13 µM | 18%
CCCn1cc(-c2nc3ccccc3s2)c2cc(-c3ccc4c5c(cccc35)C(=O)N(N)C4=O)ccc21 [Compound 22, 2-Amino-6-(3-(benzo[d]thiazol-2-yl)-1-propyl-1H-indol-5-yl)-1H-benzo[de]isoquinoline-1,3(2H)-dione] |  |  |  | 5.84 ± 0.28 µM |  | 0.84 ± 0.07 µM | 8.59 ± 0.28 µM | 
COc1cc([C@@H]2c3cc4c(cc3[C@@H](O[C@@H]3O[C@@H]5CO[C@@H](C)O[C@H]5[C@H](O)[C@H]3O)[C@H]3COC(=O)[C@H]23)OCO4)cc(OC)c1O [Etoposide, reference compound] |  |  |  | 0.33 ± 0.13 µM |  | 0.1 ± 0.02 µM | 1.89 ± 0.19 µM | 
